Data: publication PMC12307812 (Nature Communications, 2025)
Where two headings read alike, the source gives them in different places.

What was measured:
[1] = target: T1, Recombinant Human TMPRSS2 (Homo sapiens, UniProt O15393); assay: TMPRSS2 biochemical assay with pre-incubation of inhibitor and enzyme; conditions: for inhibition at 2.788 pM: concentration 0.00278767 nM; for inhibition at 8.363 pM: concentration 0.00836301 nM; for inhibition at 25.09 pM: concentration 0.025089 nM; for inhibition at 75.27 pM: concentration 0.0752671 nM; for inhibition at 0.000225801 µM: concentration 0.225801 nM; for inhibition at 0.000677404 µM: concentration 0.677404 nM; for inhibition at 0.00203221 µM: concentration 2.03221 nM; for inhibition at 0.00609663 µM: concentration 6.09663 nM; for inhibition at 0.0182899 µM: concentration 18.2899 nM; for inhibition at 0.0548697 µM: concentration 54.8697 nM; for inhibition at 0.164609 µM: concentration 164.609 nM; for inhibition at 0.493827 µM: concentration 493.827 nM; for inhibition at 1.48148 µM: concentration 1481.48 nM; for inhibition at 4.44444 µM: concentration 4444.44 nM; for inhibition at 13.3333 µM: concentration 13333.3 nM; for inhibition at 40 µM: concentration 40000 nM
T1 construct: human TMPRSS2 residues 106492, N-terminal 6x His-tag; 6x His-tag (N); purchased Cusabio CSB-YP023924HU; host or cells: yeast
Protocol: To that was dispensed TMPRSS2 (5 µl, 0.018 mg/ml) in assay buffer (50 mM Tris pH 8, 150 mM NaCl, 0.01% Tween20) using a BioRAPTR (Beckman Coulter) to give a total reaction volume of 5 µl. […] The final assay conditions are 10 µM peptide, 0.018 mg/ml TMPRSS2 in assay buffer (50 mM Tris-HCl, pH 8, 150 mM NaCl, 0.01% Tween20).
After incubation at room temperature for 1 h, fluorescence was measured. […] Raw plate reads for each titration point were normalized relative to a positive control containing no enzyme (0% activity, full inhibition) and a negative control containing DMSO-only wells (100% activity, basal activity). Data normalization was performed using GraphPad Prism (GraphPad Software, San Diego, CA).
We employed the curve fitting algorithm available in the SciPy package (version 1.10.1)[61] to derive the Hill slope and the IC50 value, along with their corresponding error estimates.
To model the relationship between the pre-incubation time and the IC50, we use the following equation inspired by the Morse potential:3 ft,a,D,te=D⋅1−exp−a⋅t−te^2 where t is the time, a is the width of the well, D is the IC50 at infinite time (depth of the well) and te is the time at which the IC50 reaches its minimum. Again, we made use of SciPy’s curve fitting method to obtain parameters a, D and te, with their respective error estimates.

[2] = system: vesicular stomatitis virus (VSV); format: cell-based; conditions: VSV
[3] = system: pseudovirus bearing S protein of HCoV-NL63; assay: organism not typed; format: cell-based
[4] = Calu-3, read-out: mean inhibition

T1 sequence (O15393 106-492 limits assumed): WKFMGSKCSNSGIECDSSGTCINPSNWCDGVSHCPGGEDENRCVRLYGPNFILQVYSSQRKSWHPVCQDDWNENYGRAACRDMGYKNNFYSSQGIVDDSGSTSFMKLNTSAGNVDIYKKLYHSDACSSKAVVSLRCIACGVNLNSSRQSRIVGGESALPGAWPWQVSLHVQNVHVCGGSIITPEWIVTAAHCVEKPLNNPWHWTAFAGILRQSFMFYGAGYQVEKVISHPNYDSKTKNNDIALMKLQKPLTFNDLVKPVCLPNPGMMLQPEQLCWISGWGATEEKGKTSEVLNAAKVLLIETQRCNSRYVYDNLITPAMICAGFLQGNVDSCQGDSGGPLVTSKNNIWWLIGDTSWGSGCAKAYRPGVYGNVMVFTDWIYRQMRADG

SMILES: CN(C)C(=O)COC(=O)Cc1ccc(OC(=O)c2ccc(NC(=N)N)cc2)cc1 [camostat]
- inhibition at 2.788 pM ([1]; pre-incubation 0): -8.21%
- inhibition at 8.363 pM ([1]; pre-incubation 0): -16.5%
- inhibition at 25.09 pM ([1]; pre-incubation 0): -12.1%
- inhibition at 75.27 pM ([1]; pre-incubation 0): 11.6%
- inhibition at 0.000225801 µM ([1]; pre-incubation 0): 44.8%
- inhibition at 0.000677404 µM ([1]; pre-incubation 0): 63.8%
- inhibition at 0.00203221 µM ([1]; pre-incubation 0): 78.4%
- inhibition at 0.00609663 µM ([1]; pre-incubation 0): 87.8%
- inhibition at 0.0182899 µM ([1]; pre-incubation 0): 93.9%
- inhibition at 0.0548697 µM ([1]; pre-incubation 0): 95.2%
- inhibition at 0.164609 µM ([1]; pre-incubation 0): 94.9%
- inhibition at 0.493827 µM ([1]; pre-incubation 0): 96.5%
- inhibition at 1.48148 µM ([1]; pre-incubation 0): 97.9%
- inhibition at 4.44444 µM ([1]; pre-incubation 0): 97.2%
- inhibition at 13.3333 µM ([1]; pre-incubation 0): 98.7%
- inhibition at 40 µM ([1]; pre-incubation 0): 98.9%
- inhibition at 2.788 pM ([1]; pre-incubation 1): 6.01%
- inhibition at 8.363 pM ([1]; pre-incubation 1): 2.49%
- inhibition at 25.09 pM ([1]; pre-incubation 1): 10%
- inhibition at 75.27 pM ([1]; pre-incubation 1): 58.4%
- inhibition at 0.000225801 µM ([1]; pre-incubation 1): 90.2%
- inhibition at 0.000677404 µM ([1]; pre-incubation 1): 93.6%
- inhibition at 0.00203221 µM ([1]; pre-incubation 1): 94.9%
- inhibition at 0.00609663 µM ([1]; pre-incubation 1): 95.1%
- inhibition at 0.0182899 µM ([1]; pre-incubation 1): 94.9%
- inhibition at 0.0548697 µM ([1]; pre-incubation 1): 96.1%
- inhibition at 0.164609 µM ([1]; pre-incubation 1): 96%
- inhibition at 0.493827 µM ([1]; pre-incubation 1): 95.8%
- inhibition at 1.48148 µM ([1]; pre-incubation 1): 97.1%
- inhibition at 4.44444 µM ([1]; pre-incubation 1): 97.4%
- inhibition at 13.3333 µM ([1]; pre-incubation 1): 98.2%
- inhibition at 40 µM ([1]; pre-incubation 1): 99.4%
- inhibition at 2.788 pM ([1]; pre-incubation 4): 8.38%
- inhibition at 8.363 pM ([1]; pre-incubation 4): 5.55%
- inhibition at 25.09 pM ([1]; pre-incubation 4): 35.8%
- inhibition at 75.27 pM ([1]; pre-incubation 4): 91%
- inhibition at 0.000225801 µM ([1]; pre-incubation 4): 96.5%
- inhibition at 0.000677404 µM ([1]; pre-incubation 4): 97.6%
- inhibition at 0.00203221 µM ([1]; pre-incubation 4): 97.9%
- inhibition at 0.00609663 µM ([1]; pre-incubation 4): 98.2%
- inhibition at 0.0182899 µM ([1]; pre-incubation 4): 98%
- inhibition at 0.0548697 µM ([1]; pre-incubation 4): 98.6%
- inhibition at 0.164609 µM ([1]; pre-incubation 4): 98.2%
- inhibition at 0.493827 µM ([1]; pre-incubation 4): 99.2%
- inhibition at 1.48148 µM ([1]; pre-incubation 4): 99.4%
- inhibition at 4.44444 µM ([1]; pre-incubation 4): 100%
- inhibition at 13.3333 µM ([1]; pre-incubation 4): 101%
- inhibition at 40 µM ([1]; pre-incubation 4): 102%
- inhibition at 2.788 pM ([1]; pre-incubation 8): 20.8%
- inhibition at 8.363 pM ([1]; pre-incubation 8): 10.7%
- inhibition at 25.09 pM ([1]; pre-incubation 8): 61.7%
- inhibition at 75.27 pM ([1]; pre-incubation 8): 104%
- inhibition at 0.000225801 µM ([1]; pre-incubation 8): 108%
- inhibition at 0.000677404 µM ([1]; pre-incubation 8): 110%
- inhibition at 0.00203221 µM ([1]; pre-incubation 8): 111%
- inhibition at 0.00609663 µM ([1]; pre-incubation 8): 112%
- inhibition at 0.0182899 µM ([1]; pre-incubation 8): 111%
- inhibition at 0.0548697 µM ([1]; pre-incubation 8): 112%
- inhibition at 0.164609 µM ([1]; pre-incubation 8): 113%
- inhibition at 0.493827 µM ([1]; pre-incubation 8): 113%
- inhibition at 1.48148 µM ([1]; pre-incubation 8): 114%
- inhibition at 4.44444 µM ([1]; pre-incubation 8): 115%
- inhibition at 13.3333 µM ([1]; pre-incubation 8): 114%
- inhibition at 40 µM ([1]; pre-incubation 8): 115%
- inhibition at 2.788 pM ([1]; pre-incubation 18): 24.4%
- inhibition at 8.363 pM ([1]; pre-incubation 18): 17.1%
- inhibition at 25.09 pM ([1]; pre-incubation 18): 57.1%
- inhibition at 75.27 pM ([1]; pre-incubation 18): 86.7%
- inhibition at 0.000225801 µM ([1]; pre-incubation 18): 91.7%
- inhibition at 0.000677404 µM ([1]; pre-incubation 18): 94.1%
- inhibition at 0.00203221 µM ([1]; pre-incubation 18): 95.7%
- inhibition at 0.00609663 µM ([1]; pre-incubation 18): 98.6%
- inhibition at 0.0182899 µM ([1]; pre-incubation 18): 99.3%
- inhibition at 0.0548697 µM ([1]; pre-incubation 18): 99.9%
- inhibition at 0.164609 µM ([1]; pre-incubation 18): 101%
- inhibition at 0.493827 µM ([1]; pre-incubation 18): 102%
- inhibition at 1.48148 µM ([1]; pre-incubation 18): 102%
- inhibition at 4.44444 µM ([1]; pre-incubation 18): 103%
- inhibition at 13.3333 µM ([1]; pre-incubation 18): 103%
- inhibition at 40 µM ([1]; pre-incubation 18): 104%
- inhibition at 2.788 pM ([1]; pre-incubation 24): 38.3%
- inhibition at 8.363 pM ([1]; pre-incubation 24): 38.8%
- inhibition at 25.09 pM ([1]; pre-incubation 24): 73.1%
- inhibition at 75.27 pM ([1]; pre-incubation 24): 100%
- inhibition at 0.000225801 µM ([1]; pre-incubation 24): 105%
- inhibition at 0.000677404 µM ([1]; pre-incubation 24): 107%
- inhibition at 0.00203221 µM ([1]; pre-incubation 24): 107%
- inhibition at 0.00609663 µM ([1]; pre-incubation 24): 108%
- inhibition at 0.0182899 µM ([1]; pre-incubation 24): 110%
- inhibition at 0.0548697 µM ([1]; pre-incubation 24): 110%
- inhibition at 0.164609 µM ([1]; pre-incubation 24): 111%
- inhibition at 0.493827 µM ([1]; pre-incubation 24): 111%
- inhibition at 1.48148 µM ([1]; pre-incubation 24): 112%
- inhibition at 4.44444 µM ([1]; pre-incubation 24): 112%
- inhibition at 13.3333 µM ([1]; pre-incubation 24): 112%
- inhibition at 40 µM ([1]; pre-incubation 24): 113%
- inhibition at 2.788 pM ([1]; pre-incubation 48): 4.55%
- inhibition at 8.363 pM ([1]; pre-incubation 48): -1.82%
- inhibition at 25.09 pM ([1]; pre-incubation 48): 28.4%
- inhibition at 75.27 pM ([1]; pre-incubation 48): 71.5%
- inhibition at 0.000225801 µM ([1]; pre-incubation 48): 83.3%
- inhibition at 0.000677404 µM ([1]; pre-incubation 48): 86.8%
- inhibition at 0.00203221 µM ([1]; pre-incubation 48): 88.2%
- inhibition at 0.00609663 µM ([1]; pre-incubation 48): 89.9%
- inhibition at 0.0182899 µM ([1]; pre-incubation 48): 90.6%
- inhibition at 0.0548697 µM ([1]; pre-incubation 48): 91.9%
- inhibition at 0.164609 µM ([1]; pre-incubation 48): 92.7%
- inhibition at 0.493827 µM ([1]; pre-incubation 48): 94.2%
- inhibition at 1.48148 µM ([1]; pre-incubation 48): 95.1%
- inhibition at 4.44444 µM ([1]; pre-incubation 48): 97%
- inhibition at 13.3333 µM ([1]; pre-incubation 48): 100%
- inhibition at 40 µM ([1]; pre-incubation 48): 107%
- mean log10(PFU/ml) ([2]; concentration 5 nM): 9.003 log10(PFU/ml)
- mean log10(PFU/ml) ([2]; concentration 50 nM): 8.994 log10(PFU/ml)
- mean log10(PFU/ml) ([2]; concentration 500 nM): 9.01 log10(PFU/ml)
- mean log10(PFU/ml) ([2]; concentration 5000 nM): 9.013 log10(PFU/ml)
- mean log10(PFU/ml) ([2]; concentration 50000 nM): 8.989 log10(PFU/ml)
- IC50 ([3]; Calu-3, read-out: IC50 estimate, pseudovirus cell entry NL63-S): 0.806 ± 0.263 µM
- inhibition at 0.00025 µM [3, 4]: -3.23%
- inhibition at 0.0025 µM [3, 4]: 5.92%
- inhibition at 0.025 µM [3, 4]: 15.4%
- inhibition at 0.25 µM [3, 4]: 41.9%
- inhibition at 2.5 µM [3, 4]: 66.4%
- inhibition at 25 µM [3, 4]: 73.2%
